Like-named read-outs stand apart in the source and are kept apart here.
Key:
[1] = tested on: conscious rats with partial urethral obstruction; test: Cystometry in conscious rats obstructed by partial urethra ligature (unstable-bladder contractions); type: in vivo, rat; conditions: for inhibition in vivo at 0.3 mg/kg / inhibition in vivo at 1 mg/kg / inhibition in vivo at 0.1 mg/kg: 2 min; for Amplitude of non-effective micturition contractions, After Treat. / Frequency (number) of non-effective micturition contractions, After Treat.: after treatment; for Activity as inhibitors of unstable-bladder contractions (in words): obstructed conscious rats, summary of Tables 1 and 2
From the text: A useful animal model system for measuring such pharmacological activity is, without limitation, cystometry in conscious rats with partial bladder-neck obstruction. […] This model is reported in the literature as related to LUTS occurring in patients having obstructive urethral syndromes (Michel, 2000, Drugs of Today. 386 (Supp. B2): 3-6)
In order to obtain a partial obstruction of the urethra, the method previously reported by Malgren (Nalgren et al., 1987, J. Urol. 137:1291-1294; 1988, Neurourol. Urodyn. 6:371), was followed with minor modifications (Guarneri et al., 1991, Pharmacol. Res. 24:263).
Female rats of the Sprague-Dawley strain [Crl:CD(SD)BR, from Charles River Italia, Calco, Como, Italy] weighing 225-275 g were used. The animals were maintained in constant temperature and humidity conditions, on a forced 12-hour light-dark cycle and with food and water ad libitum for at least one week before the experiment.
After being anaesthetized with 3 ml/kg i.p. equitensin (pentobarbital 1.215 g, chloral hydrate 5.312 g, magnesium sulphate 2.657 g, ethanol 12.5 ml, propylene glycol 49.5 ml, distilled water to 125 ml of final volume), the rats were placed in a supine position and the bladder and urethra were exposed via an incision in the shaven abdomens and gently pulling away the muscle portion. The urethra was cannulated with a polyethylene tube with an outside diameter of 1.22 mm, and the urinary bladder was then emptied and, via the cannula introduced through the urethra, filled with physiological saline. A silk (Ethicon 3/0) ligature was placed around the urethra with the cannula inside and the intraurethral cannula was then removed. The abdominal incision was sutured and, immediately after the operative procedure, antibiotic medication (penicillin G 200 000 I.U./kg i.p. and streptomycin 260 mg/kg i.p.) was performed.
Three weeks after the procedure for partially obstructing the urethra, the animals were prepared for cystometry by surgical insertion into the bladder of a catheter, through which the bladder was gradually filled.
The rats, anaesthetised with equitensin 3 ml/kg i.p., were placed in a supine position and, via an incision of about 10 mm in the abdominal wall, the urinary bladder was exposed and gently freed from surrounding tissues.
The urinary bladder was emptied manually and cannulated, via a small incision at the bladder top, with a polyethylene cannula (type PE-50, 0.58 mm I.D. ×0.96 mm O.D.), which was permanently secured to the bladder with silk thread.
The cannula was exposed through a subcutaneous tunnel in the retroscapular area, where it was fastened with a plastic adapter, in order to avoid the risk of removal by the animal. After washing the urinary bladder with physiological saline, the catheter was sealed using a small flame and the abdominal incision was sutured.
To allow evaluation of the effect of a test compound after intravenous administration, the jugular vein was cannulated with a polyethylene cannula (type PE-50, 0.58 mm I.D.×0.96 mm O.D.) filled with heparinised physiological saline. As for the bladder catheter, this cannula, too, was exteriorised, secured and sealed in the retroscapular area.
Two days after the operation, the rats, fasted overnight, were placed in Bollman's cages or in Bollman's cages modified so as to have an opening in the bottom to allow collection of urinated fluid.
After an adaptation period of 20 minutes, the free end of the bladder cannula was connected to a pressure transducer and a special apparatus which allowed infusion into the urinary bladder of physiological saline at 37° C. at a constant rate of 10 ml/hour. Intravesical pressure changes caused by bladder filling were recorded by the pressure transducer which was connected to a recording polygraph.
From the cystometrograms, the frequency and mean amplitude of spontaneous bladder contractions not inducing micturition, termed “unstable-bladder contractions” (UBC), within 2 minutes prior to micturition were evaluated. […]

[2] = molecular target: T1, cloned α1a-adrenoceptor subtype (Homo sapiens, UniProt P35348); test: Radioligand binding assay ([3H]prazosin), cloned α1a-adrenoceptor subtype; conditions: read-out: Binding Affinity (Ki nM) α1a
T1 construct: expressed in transfected cells
T1 sequence (P35348 1-466): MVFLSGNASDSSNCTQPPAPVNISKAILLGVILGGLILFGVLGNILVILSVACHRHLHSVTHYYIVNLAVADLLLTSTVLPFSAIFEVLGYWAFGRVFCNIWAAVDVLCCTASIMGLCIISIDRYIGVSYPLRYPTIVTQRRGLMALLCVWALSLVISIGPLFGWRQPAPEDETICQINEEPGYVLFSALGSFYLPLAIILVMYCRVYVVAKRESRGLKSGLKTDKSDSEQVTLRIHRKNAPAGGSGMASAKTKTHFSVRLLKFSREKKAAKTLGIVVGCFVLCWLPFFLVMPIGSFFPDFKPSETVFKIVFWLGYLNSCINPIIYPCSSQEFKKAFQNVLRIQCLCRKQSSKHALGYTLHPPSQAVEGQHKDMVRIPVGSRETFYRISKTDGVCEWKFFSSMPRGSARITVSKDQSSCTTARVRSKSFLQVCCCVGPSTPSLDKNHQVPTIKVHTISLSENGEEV
Description: (§1) Springer-Verlag, pp. 10-12). […] The results from these assays are used to calculate a measure of receptor selectivity, expressed as the ratio of affinities (Ki) for a given pair of receptors.
(§2) Determination of affinity for cloned subtypes of α1-adrenoceptor subtypes was performed in membranes from cells transfected by electroporation with DNA expressing the genes encoding each α1-adrenoceptor subtype.
(§3) Non-specific binding was determined in the presence of 10 μM phentolamine. Incubation was stopped by addition of ice-cold Tris buffer and rapid filtration through 0.2% polyethyleneimine-pretreated Schleicher & Schuell GF52 filters. […] Data were expressed as mean Ki.

[3] = molecular target: T2, cloned α1d-adrenoceptor subtype (Homo sapiens, UniProt P25100); test: Radioligand binding assay ([3H]prazosin), cloned α1d-adrenoceptor subtype; conditions: read-out: Binding Affinity (Ki nM) α1d
T2 construct: expressed in transfected cells
T2 sequence (P25100 1-572): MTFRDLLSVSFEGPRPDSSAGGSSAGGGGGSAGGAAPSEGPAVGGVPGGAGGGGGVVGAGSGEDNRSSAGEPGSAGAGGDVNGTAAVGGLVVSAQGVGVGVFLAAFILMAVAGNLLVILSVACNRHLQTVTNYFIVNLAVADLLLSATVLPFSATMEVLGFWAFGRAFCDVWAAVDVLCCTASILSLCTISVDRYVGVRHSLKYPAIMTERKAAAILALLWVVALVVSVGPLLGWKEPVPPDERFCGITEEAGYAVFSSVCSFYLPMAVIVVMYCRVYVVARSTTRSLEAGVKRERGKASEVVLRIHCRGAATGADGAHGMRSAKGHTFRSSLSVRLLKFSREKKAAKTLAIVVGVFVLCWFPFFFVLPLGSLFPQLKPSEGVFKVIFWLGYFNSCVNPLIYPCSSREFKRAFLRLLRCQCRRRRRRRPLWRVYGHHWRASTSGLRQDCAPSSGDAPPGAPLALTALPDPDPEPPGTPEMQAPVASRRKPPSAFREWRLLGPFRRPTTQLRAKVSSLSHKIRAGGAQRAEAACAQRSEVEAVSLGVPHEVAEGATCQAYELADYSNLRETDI
Description: as §1, §2, §3

[4] = molecular target: T3, cloned α1b-adrenoceptor subtype (Homo sapiens, UniProt P35368); test: Radioligand binding assay ([3H]prazosin), cloned α1b-adrenoceptor subtype; conditions: read-out: Binding Affinity (Ki nM) α1b
T3 construct: expressed in transfected cells
T3 sequence (P35368 1-520): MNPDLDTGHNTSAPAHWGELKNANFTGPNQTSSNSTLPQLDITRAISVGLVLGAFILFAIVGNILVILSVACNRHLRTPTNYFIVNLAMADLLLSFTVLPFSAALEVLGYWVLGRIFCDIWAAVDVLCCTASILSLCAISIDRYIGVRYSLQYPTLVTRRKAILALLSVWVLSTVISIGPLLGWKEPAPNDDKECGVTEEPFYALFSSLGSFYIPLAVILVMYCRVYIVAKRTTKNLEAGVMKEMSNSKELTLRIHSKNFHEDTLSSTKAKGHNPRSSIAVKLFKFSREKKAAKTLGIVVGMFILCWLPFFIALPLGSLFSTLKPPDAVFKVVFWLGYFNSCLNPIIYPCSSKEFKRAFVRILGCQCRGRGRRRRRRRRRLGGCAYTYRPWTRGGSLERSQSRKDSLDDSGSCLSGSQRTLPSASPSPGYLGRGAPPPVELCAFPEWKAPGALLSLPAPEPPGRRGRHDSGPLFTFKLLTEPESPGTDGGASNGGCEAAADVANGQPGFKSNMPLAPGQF
Description: as §1, §2, §3

[5] = obstructed rat, 0.3 mg/kg, 2 minutes before micturition, read-out: % inhibition of frequency of non-effective micturition contractions
[6] = obstructed rat, 2 minutes before micturition, read-out: % inhibition of frequency of non-effective micturition contractions
[7] = Rattus norvegicus, read-out: % inhibition of amplitude of non-effective micturition contractions
[8] = Rattus norvegicus, read-out: % inhibition of frequency of non-effective micturition contractions
[9] = obstructed rat, 0.3 mg/kg, 2 minutes before micturition, read-out: % inhibition of amplitude of non-effective micturition contractions
[10] = obstructed rat, 2 minutes before micturition, read-out: % inhibition of amplitude of non-effective micturition contractions
[11] = obstructed rat, 0.1 mg/kg, 2 minutes before micturition, read-out: % inhibition of amplitude of non-effective micturition contractions
[12] = obstructed rat, 0.1 mg/kg, 2 minutes before micturition, read-out: % inhibition of frequency of non-effective micturition contractions

Row | SMILES | inhibition in vivo at 0.3 mg/kg [1, 5] | inhibition in vivo at 1 mg/kg [1, 6] | Ki [3] | Amplitude of non-effective micturition contractions, After Treat. ([1]; 0.1 mg/kg) | Frequency (number) of non-effective micturition contractions, After Treat. ([1]; 0.1 mg/kg) | Amplitude of non-effective micturition contractions, After Treat. ([1]; 0.3 mg/kg) | Frequency (number) of non-effective micturition contractions, After Treat. ([1]; 0.3 mg/kg) | Activity as inhibitors of unstable-bladder contractions (in words) [1] | Ki [4] | inhibition in vivo at 0.3 mg/kg [1, 9] | inhibition in vivo at 1 mg/kg [1, 10] | Amplitude of non-effective micturition contractions, After Treat. ([1]; 1.0 mg/kg) | Frequency (number) of non-effective micturition contractions, After Treat. ([1]; 1.0 mg/kg) | other results
1 | COc1ccccc1N1CCN(CCCNC(=O)c2csc3c(=O)cc(C(F)(F)F)oc23)CC1 [Compound A, N-{3-[4-(2-methoxyphenyl)-1-piperazinyl]propyl}-7-keto-5-trifluoromethyl-7H-thieno [3,2-b]pyran-3-carboxamide] | 44% | 67% | – | – | – | – | – | – | – | – | – | – | – | –
2 | Cc1onc(-c2ccccc2)c1C(=O)NCCCN1CCN(c2cc(F)ccc2OCC(F)(F)F)CC1 [Compound C, N-{3-[4-[5-fluoro-2-(2,2,2-trifluoroethoxy)phenyl]-1-piperazinyl]propyl}-3-phenyl-5-methylisoxazole-4-carboxamide] | – | – | 0.33 nM | – | – | – | – | – | – | – | – | – | – | Ki [2]: 0.05 nM
3 | COc1cc2nc(N3CCN(C(=O)c4ccco4)CC3)nc(N)c2cc1OC [Prazosin, prazosin] | – | – | – | 3.1 ± 0.9 mmHg | 2.8 ± 0.8 | 2.1 ± 1.5 mmHg | 2.3 ± 1.1 | marked and dose-dependent reduction | – | – | – | – | – | inhibition in vivo at 0.1 mg/kg [1, 7]: 63%; inhibition in vivo at 0.3 mg/kg [1, 7]: 87%; inhibition in vivo at 0.1 mg/kg [1, 8]: 48%; inhibition in vivo at 0.3 mg/kg [1, 8]: 74%
4 | O=C1CC2(CCCC2)CC(=O)N1CCN1CCN(c2cc(Cl)ccc2Cl)CC1 [Rec 26D/038] | 38% | 27% | 0.13 nM | – | – | 6.6 ± 1.5 mmHg | 3.6 ± 0.7 | poorly active | 19 nM | 39% | 21% | 7.5 ± 1.6 mmHg | 4.5 ± 1.2 | –
5 | O=C1CC2(CCCC2)CCN1CCN1CCN(c2cc(Cl)ccc2Cl)CC1 [Rec 26D/073] | 31% | 25% | 0.11 nM | – | – | 6.2 ± 1.6 mmHg | 2.8 ± 0.7 | poorly active | 11 nM | 16% | 18% | 7.5 ± 1.2 mmHg | 4.4 ± 0.7 | –
6 | CCOc1ccccc1OCCN[C@H](C)Cc1ccc(OC)c(S(N)(=O)=O)c1 [Tamsulosin, tamsulosin] | – | – | – | 3.7 ± 1.1 mmHg | 1.9 ± 0.7 | – | – | very potent | 0.94 nM | – | – | – | – | Ki ([3]; cloned receptor, cell membranes, 0.2 nM [3H]prazosin, mean Ki): 0.16 nM; inhibition in vivo at 0.1 mg/kg [1, 11]: 52%; inhibition in vivo at 0.1 mg/kg [1, 12]: 61%
7 | COc1cc2nc(N3CCN(C(=O)C4CCCO4)CC3)nc(N)c2cc1OC (stereo not shown) [Terazosin, terazosin] | 65% | 93% | – | 6.6 ± 0.7 mmHg | 4.0 ± 0.3 | 3.7 ± 1.1 mmHg | 1.9 ± 0.5 | marked and dose-dependent reduction | – | 64% | 86% | 0.8 ± 0.8 mmHg | 0.3 ± 0.3 | inhibition in vivo at 0.1 mg/kg [1, 11]: 31%; inhibition in vivo at 0.1 mg/kg [1, 12]: 30%

Source: US20020183290A1, “Adrenergic receptor antagonists selective for both alpha1A-and alpha1D-subtypes and uses therefor” (Recordati S.A., Chemical and Pharmaceutical Company, priority 2001, published 2002)
